Laboratory results reported in the NIST ThermoML archive (doi:10.1016/j.jct.2013.01.013).

Assay: xn = mol fraction of the nth substance listed
Conditions: 101 kPa, Liquid; for viscosity: Capillary tube (Ostwald / Ubbelohde) method; for speed of sound: Linear variable-path acoustic interferometer; for mass density: Pycnometric method

C=C(C)C(=O)OC [methyl methacrylate] + CN(C)C=O
Conditions | mass density [kg/m3] | speed of sound [m/s] | viscosity [mPa·s]
288.15 K, x1 = 0.0696 | 953.35 | 1484.1 | 0.905
288.15 K, x1 = 0.1417 | 953.07 | 1464.4 | 0.868
288.15 K, x1 = 0.211 | 952.8 | 1445.5 | 0.8355
288.15 K, x1 = 0.2855 | 952.5 | 1425.2 | 0.8041
288.15 K, x1 = 0.3573 | 952.22 | 1405.4 | 0.7765
288.15 K, x1 = 0.4308 | 951.91 | 1384.8 | 0.7513
288.15 K, x1 = 0.5042 | 951.58 | 1363.9 | 0.729
288.15 K, x1 = 0.578 | 951.23 | 1342.6 | 0.7083
288.15 K, x1 = 0.6552 | 950.86 | 1320 | 0.6885
288.15 K, x1 = 0.7204 | 950.53 | 1300.7 | 0.6742
288.15 K, x1 = 0.7873 | 950.19 | 1280.7 | 0.6612
288.15 K, x1 = 0.8548 | 949.84 | 1260.4 | 0.6505
288.15 K, x1 = 0.9268 | 949.47 | 1238.7 | 0.6417
288.15 K, x1 = 1 | 949.1 | 1216.8 | 0.634
293.15 K, x1 = 0.0696 | 948.76 | 1466.8 | 0.834
293.15 K, x1 = 0.1417 | 948.39 | 1447.2 | 0.8009
293.15 K, x1 = 0.211 | 948.03 | 1428.4 | 0.7713
293.15 K, x1 = 0.2855 | 947.64 | 1408.2 | 0.742
293.15 K, x1 = 0.3573 | 947.25 | 1388.5 | 0.717
293.15 K, x1 = 0.4308 | 946.85 | 1368 | 0.6941
293.15 K, x1 = 0.5042 | 946.43 | 1347.2 | 0.6736
293.15 K, x1 = 0.578 | 946 | 1326 | 0.6552
293.15 K, x1 = 0.6552 | 945.53 | 1303.5 | 0.6382
293.15 K, x1 = 0.7204 | 945.13 | 1284.3 | 0.6261
293.15 K, x1 = 0.7873 | 944.72 | 1264.4 | 0.6149
293.15 K, x1 = 0.8548 | 944.29 | 1244.1 | 0.6055
293.15 K, x1 = 0.9268 | 943.83 | 1222.5 | 0.598
293.15 K, x1 = 1 | 943.37 | 1200.5 | 0.5903
298.15 K, x1 = 0.0696 | 944.17 | 1450 | 0.7818
298.15 K, x1 = 0.1417 | 943.71 | 1430.6 | 0.7509
298.15 K, x1 = 0.211 | 943.26 | 1411.8 | 0.7233
298.15 K, x1 = 0.2855 | 942.77 | 1391.5 | 0.6958
298.15 K, x1 = 0.3573 | 942.29 | 1371.8 | 0.672
298.15 K, x1 = 0.4308 | 941.79 | 1351.3 | 0.651
298.15 K, x1 = 0.5042 | 941.28 | 1330.4 | 0.632
298.15 K, x1 = 0.578 | 940.76 | 1309.2 | 0.6151
298.15 K, x1 = 0.6552 | 940.21 | 1286.7 | 0.6
298.15 K, x1 = 0.7204 | 939.73 | 1267.4 | 0.5885
298.15 K, x1 = 0.7873 | 939.24 | 1247.4 | 0.5786
298.15 K, x1 = 0.8548 | 938.74 | 1227.1 | 0.57
298.15 K, x1 = 0.9268 | 938.19 | 1205.3 | 0.5625
298.15 K, x1 = 1 | 937.63 | 1183.6 | 0.5544
303.15 K, x1 = 0.0696 | – | 1430.3 | 0.737
303.15 K, x1 = 0.1417 | – | 1411.3 | 0.7088
303.15 K, x1 = 0.211 | – | 1393 | 0.683
303.15 K, x1 = 0.2855 | – | 1373.1 | 0.6568
303.15 K, x1 = 0.3573 | – | 1353.7 | 0.6346
303.15 K, x1 = 0.4308 | – | 1333.6 | 0.6148
303.15 K, x1 = 0.5042 | – | 1313.1 | 0.5972
303.15 K, x1 = 0.578 | – | – | 0.5817
303.15 K, x1 = 0.6552 | – | – | 0.5675
303.15 K, x1 = 0.7204 | – | – | 0.5575
303.15 K, x1 = 0.7873 | – | – | 0.5486
303.15 K, x1 = 0.8548 | – | – | 0.5408
303.15 K, x1 = 0.9268 | – | – | 0.5331
303.15 K, x1 = 1 | – | – | 0.5251
